Data reported in patent publication US6468782B1, “Methods of preserving prokaryotic cells and compositions obtained thereby” (priority 1996, dated 2002).
Where two headings read alike, the source gives them in different places.

Columns and labels:
E. coli 9484 = assay: Viable cell recovery (plate assay, CFU) of trehalose-induced E. coli Q-T4 dried with different excipients and stored at 37° C.; assay type: cell-based
Protocol: Viability was determined immediately after completion and at various times during storage at 37° C. using a plate assay. For the plate assay, serial 10-fold dilutions of cells were set up by using minimal medium minus a carbon source as a sterile diluent.
Thirty μl of the cell suspension from the sixth dilution tube was added to each of 3 LB (Luria-Bertuni) plates, using a sterile glass spreader to spread the culture over the entire surface of the plate. The plates were incubated overnight at 37° C., and the colonies counted.
E. coli strain 9894 was inoculated in 100 ml batch cultures of minimal medium related to M9 but with high (0.5M) salt content as described in Example 2. Cells were grown for 22 hours at 37° C. in a shaking incubator (early stationary phase). Samples of cultures were removed for trehalose determination (3×1 ml) and protein estimation by the Bradford assay (3×10 ml; Bio-Rad). Trehalose concentration was expressed as μmol (mg protein)^−1.
Two 30 ml aliquots from each flask were harvested by centrifugation at 10,000 rpm for 10 minutes. Cell pellets were resuspended in 8 ml of 25-45% sugar, 0.1% CMC (sodium carboxymethyl cellulose; Blanose 7HF; Aqualon). The suspensions were then pooled to a total volume of 16 ml with a typical cell density of 4-8×10^9 CFU/ml and 300 μl aliquots dispensed into 3 ml pharmaceutical vials.
Bacteria were dried under vacuum without freezing using the following protocol: vacuum, 30 mT; initial shelf temperature 40° C. for 16 hours, followed by ramping to 80° C. at a rate of 2.5° C./min in increments of 2° C. with a holding time of 12 minutes per increment. Foaming occurred between 60-120 minutes of initial drying.
Viability was determined immediately before and after the completion of the drying procedure and at various times during storage at 37° C. using a plate assay as described in Example 2. The residual moisture content and the glass transition temperature were also determined.

E. coli = assay: Intracellular trehalose production in E. coli under osmotic shock with different salts; assay type: cell-based
Protocol: E. coli NCIMB strain 9484 was cultured in Evans medium (pH 7.0; Table 1) containing one of a variety of agents for increasing osmotic pressure. After overnight incubation at 37° C. in initial Evans medium, a 4 ml culture of E. coli grown in Evans medium under nitrogen limitation was used to inoculate a 200 ml culture of Evans medium osmotic shock.
Intracellular trehalose concentration was measured as described below at various times after the initiation of osmotic shock.
Intracellular concentration of trehalose was determined using high pressure liquid chromatography (HPLC) as follows. Trehalose standards were prepared by first making 10 mM trehalose in 70% ethanol, followed by 10-fold serial dilution from 10 mM to 10 nM using 70% ethanol as diluent. […]
Cell samples were prepared for analysis by disrupting the cell wall by sonication (any other method such as mortar and pestle, osmotic lysis, beads can be used) coupled with the preferential solubilization of trehalose in 70% ethanol, followed by removing triglycerides by chloroform extraction. […] The pellet volume was determined by measuring the relative increase in the initial volume following resuspension of the cells. […]
Quantitation of trehalose was achieved by HPLC (Beckman Instruments), using a Dionex CarboPac PA 100 analytical column, with a Dionex ED40 pulsed amperometric electrochemical detector. […]

Palatinit
% Viable Cell Recovery after storage at 37° C., Day 0 (E. coli 9484): 49% | % Viable Cell Recovery after storage at 37° C., Week 3 (E. coli 9484): 49% | % Viable Cell Recovery after storage at 37° C., Week 6 (E. coli 9484): 51%

OC[C@H]1O[C@H](O[C@H]2O[C@H](CO)[C@@H](O)[C@H](O)[C@H]2O)[C@H](O)[C@@H](O)[C@@H]1O [Trehalose, α-D-glucopyranosyl-α-D-glucopyranoside]
% Viable Cell Recovery after storage at 37° C., Week 3 (E. coli 9484; 3 weeks storage at 37° C., 25-45% sugar, 0.1% CMC): 52% | % Viable Cell Recovery after storage at 37° C., Week 6 (E. coli 9484; 6 weeks storage at 37° C., 25-45% sugar, 0.1% CMC): 45% | % Viable Cell Recovery after storage at 37° C., Day 0 (E. coli 9484; immediately after completion of Q-T4 drying, 25-45% sugar, 0.1% CMC): 36%

OC[C@@H](O)[C@@H](O[C@@H]1O[C@H](CO)[C@H](O)[C@H](O)[C@H]1O)[C@H](O)[C@@H](O)CO [Lactitol, 4-O-β-D-galactopyranosyl-D-glucitol]
% Viable Cell Recovery after storage at 37° C., Day 0 (E. coli 9484; E. coli, 0 day): 42% | % Viable Cell Recovery after storage at 37° C., Week 3 (E. coli 9484; E. coli, 3 weeks): 36% | % Viable Cell Recovery after storage at 37° C., Week 6 (E. coli 9484; E. coli, 6 weeks): 34%

N.N.O=S(=O)(O)O [ammonium sulfate]
amount of intracellular trehalose concentration stimulated, relative to NaCl, CaCl2 or KCl (E. coli): about half
